Organism: Rattus norvegicus
Experiment: DrugMatrix - Regimen: Daily Repeat
Type: toxicity, organism-based, Sprague-Dawley
Design: regimen Daily Repeat, gender Male, age 6-8 weeks
Details: in vivo, po, route oral GAVAGE, dose level Low; for ABSOLUTE BASOPHIL / ABSOLUTE EOSINOPHIL / ABSOLUTE LYMPHOCYTE / ABSOLUTE MONOCYTE / ABSOLUTE SEGMENTED NEUTROPHIL / BASOPHIL / EOSINOPHIL / ERYTHROCYTE COUNT / HEMATOCRIT / HEMOGLOBIN / LEUKOCYTE COUNT / LYMPHOCYTE / MEAN CORPUSCULAR HEMOGLOBIN / MEAN CORPUSCULAR HEMOGLOBIN CONCENTRATION / MEAN CORPUSCULAR VOLUME / MONOCYTE / NEUTROPHIL / NUCLEATED RED BLOOD CELLS / PLATELET COUNT: tissue Blood; for ALANINE AMINOTRANSFERASE / ALBUMIN / ALKALINE PHOSPHATASE / ASPARTATE AMINOTRANSFERASE / BLOOD UREA NITROGEN / CARBON DIOXIDE / CHLORIDE / CHOLESTEROL / CREATINE PHOSPHOKINASE / CREATININE / GLUCOSE / LACTATE DEHYDROGENASE / LIPASE / PHOSPHORUS / POTASSIUM / SODIUM / TOTAL BILIRUBIN / TOTAL PROTEIN / URIC ACID: tissue Plasma
[1] = 50 mg/kg, 72 h, time 3 day, […]
[2] = 50 mg/kg, 120 h, time 5 day, […]
[3] = 34 mg/kg, 72 h, time 3 day, vehicle .5 % CMC
[4] = 34 mg/kg, 120 h, time 5 day, vehicle .5 % CMC

COC(=O)Nc1nc2ccc(Sc3ccccc3)cc2[nH]1 [FENBENDAZOLE]
ABSOLUTE BASOPHIL [1]: 0 CELLS/uL
ABSOLUTE EOSINOPHIL [1]: 0 CELLS/uL
ABSOLUTE LYMPHOCYTE [1]: 13096 CELLS/uL
ABSOLUTE MONOCYTE [1]: 168.67 CELLS/uL
ABSOLUTE SEGMENTED NEUTROPHIL [1]: 1268.67 CELLS/uL
BASOPHIL [1]: 0%
EOSINOPHIL [1]: 0%
ERYTHROCYTE COUNT [1]: 5.64 x10E6/uL
HEMATOCRIT [1]: 35.13%
HEMOGLOBIN [1]: 13.37 G/DL
LEUKOCYTE COUNT [1]: 14.53 x10E3/uL
LYMPHOCYTE [1]: 90.33%
MEAN CORPUSCULAR HEMOGLOBIN [1]: 23.7 pg
MEAN CORPUSCULAR HEMOGLOBIN CONCENTRATION [1]: 38.07 G/DL
MEAN CORPUSCULAR VOLUME [1]: 62.37 fL
MONOCYTE [1]: 1%
NEUTROPHIL [1]: 8.67%
NUCLEATED RED BLOOD CELLS [1]: 0 /100WBC
PLATELET COUNT [1]: 1087 x10E3/uL
ALANINE AMINOTRANSFERASE [1]: 79 u/L
ALBUMIN [1]: 4.07 G/DL
ALKALINE PHOSPHATASE [1]: 536.67 u/L
ASPARTATE AMINOTRANSFERASE [1]: 137.67 u/L
BLOOD UREA NITROGEN [1]: 15 mg/dL
CARBON DIOXIDE [1]: 27.33 mmol/L
CHLORIDE [1]: 99.33 MEQ/L
CHOLESTEROL [1]: 87.33 mg/dL
CREATINE PHOSPHOKINASE [1]: 508.67 u/L
CREATININE [1]: 0.16 mg/dL
GLUCOSE [1]: 146.33 mg/dL
LACTATE DEHYDROGENASE [1]: 359 u/L
LIPASE [1]: 10.67 u/L
PHOSPHORUS [1]: 13.07 mg/dL
POTASSIUM [1]: 6.5 MEQ/L
SODIUM [1]: 143.5 MEQ/L
TOTAL BILIRUBIN [1]: 0.3 mg/dL
TOTAL PROTEIN [1]: 5.6 G/DL
URIC ACID [1]: 1.7 mg/dL
ABSOLUTE BASOPHIL [2]: 0 CELLS/uL
ABSOLUTE EOSINOPHIL [2]: 126 CELLS/uL
ABSOLUTE LYMPHOCYTE [2]: 15732 CELLS/uL
ABSOLUTE MONOCYTE [2]: 245.33 CELLS/uL
ABSOLUTE SEGMENTED NEUTROPHIL [2]: 1830 CELLS/uL
BASOPHIL [2]: 0%
EOSINOPHIL [2]: 0.67%
ERYTHROCYTE COUNT [2]: 6.25 x10E6/uL
HEMATOCRIT [2]: 37.37%
HEMOGLOBIN [2]: 14.73 G/DL
LEUKOCYTE COUNT [2]: 17.93 x10E3/uL
LYMPHOCYTE [2]: 88%
MEAN CORPUSCULAR HEMOGLOBIN [2]: 23.57 pg
MEAN CORPUSCULAR HEMOGLOBIN CONCENTRATION [2]: 39.43 G/DL
MEAN CORPUSCULAR VOLUME [2]: 59.83 fL
MONOCYTE [2]: 1.33%
NEUTROPHIL [2]: 10%
NUCLEATED RED BLOOD CELLS [2]: 0 /100WBC
PLATELET COUNT [2]: 1051.67 x10E3/uL
ALANINE AMINOTRANSFERASE [2]: 164.33 u/L
ALBUMIN [2]: 4.1 G/DL
ALKALINE PHOSPHATASE [2]: 601.67 u/L
ASPARTATE AMINOTRANSFERASE [2]: 203.67 u/L
BLOOD UREA NITROGEN [2]: 13.67 mg/dL
CARBON DIOXIDE [2]: 26.33 mmol/L
CHLORIDE [2]: 99.33 MEQ/L
CHOLESTEROL [2]: 85.33 mg/dL
CREATINE PHOSPHOKINASE [2]: 602.33 u/L
CREATININE [2]: 0.19 mg/dL
GLUCOSE [2]: 143.67 mg/dL
LACTATE DEHYDROGENASE [2]: 615.33 u/L
LIPASE [2]: 11 u/L
PHOSPHORUS [2]: 11.27 mg/dL
POTASSIUM [2]: 6.24 MEQ/L
SODIUM [2]: 142.9 MEQ/L
TOTAL BILIRUBIN [2]: 0.27 mg/dL
TOTAL PROTEIN [2]: 5.6 G/DL
URIC ACID [2]: 2.17 mg/dL

NS(=O)(=O)c1cc(C(=O)O)c(NCc2ccco2)cc1Cl [FUROSEMIDE]
ABSOLUTE BASOPHIL [3]: 0 CELLS/uL
ABSOLUTE EOSINOPHIL [3]: 0 CELLS/uL
ABSOLUTE LYMPHOCYTE [3]: 13709 CELLS/uL
ABSOLUTE MONOCYTE [3]: 86 CELLS/uL
ABSOLUTE SEGMENTED NEUTROPHIL [3]: 1038.33 CELLS/uL
BASOPHIL [3]: 0%
EOSINOPHIL [3]: 0%
ERYTHROCYTE COUNT [3]: 5.45 x10E6/uL
HEMATOCRIT [3]: 33.7%
HEMOGLOBIN [3]: 13.47 G/DL
LEUKOCYTE COUNT [3]: 14.83 x10E3/uL
LYMPHOCYTE [3]: 92.33%
MEAN CORPUSCULAR HEMOGLOBIN [3]: 24.7 pg
MEAN CORPUSCULAR HEMOGLOBIN CONCENTRATION [3]: 39.97 G/DL
MEAN CORPUSCULAR VOLUME [3]: 61.87 fL
MONOCYTE [3]: 0.67%
NEUTROPHIL [3]: 7%
NUCLEATED RED BLOOD CELLS [3]: 0 /100WBC
PLATELET COUNT [3]: 1150 x10E3/uL
ALANINE AMINOTRANSFERASE [3]: 50.33 u/L
ALBUMIN [3]: 4.17 G/DL
ALKALINE PHOSPHATASE [3]: 404.33 u/L
ASPARTATE AMINOTRANSFERASE [3]: 82.67 u/L
BLOOD UREA NITROGEN [3]: 16 mg/dL
CARBON DIOXIDE [3]: 29.33 mmol/L
CHLORIDE [3]: 99 MEQ/L
CHOLESTEROL [3]: 46.33 mg/dL
CREATINE PHOSPHOKINASE [3]: 391.33 u/L
CREATININE [3]: 0.19 mg/dL
GLUCOSE [3]: 138.67 mg/dL
LACTATE DEHYDROGENASE [3]: 200.67 u/L
LIPASE [3]: 9 u/L
PHOSPHORUS [3]: 10.7 mg/dL
POTASSIUM [3]: 6.62 MEQ/L
SODIUM [3]: 143.97 MEQ/L
TOTAL BILIRUBIN [3]: 0.33 mg/dL
TOTAL PROTEIN [3]: 5.77 G/DL
URIC ACID [3]: 1.33 mg/dL
ABSOLUTE BASOPHIL [4]: 0 CELLS/uL
ABSOLUTE EOSINOPHIL [4]: 0 CELLS/uL
ABSOLUTE LYMPHOCYTE [4]: 14118 CELLS/uL
ABSOLUTE MONOCYTE [4]: 111.33 CELLS/uL
ABSOLUTE SEGMENTED NEUTROPHIL [4]: 770.67 CELLS/uL
BASOPHIL [4]: 0%
EOSINOPHIL [4]: 0%
ERYTHROCYTE COUNT [4]: 5.69 x10E6/uL
HEMATOCRIT [4]: 36.23%
HEMOGLOBIN [4]: 14 G/DL
LEUKOCYTE COUNT [4]: 15 x10E3/uL
LYMPHOCYTE [4]: 94%
MEAN CORPUSCULAR HEMOGLOBIN [4]: 24.6 pg
MEAN CORPUSCULAR HEMOGLOBIN CONCENTRATION [4]: 38.73 G/DL
MEAN CORPUSCULAR VOLUME [4]: 63.7 fL
MONOCYTE [4]: 0.67%
NEUTROPHIL [4]: 5.33%
NUCLEATED RED BLOOD CELLS [4]: 0.33 /100WBC
PLATELET COUNT [4]: 1289.67 x10E3/uL
ALANINE AMINOTRANSFERASE [4]: 54.33 u/L
ALBUMIN [4]: 4.37 G/DL
ALKALINE PHOSPHATASE [4]: 439.33 u/L
ASPARTATE AMINOTRANSFERASE [4]: 88 u/L
BLOOD UREA NITROGEN [4]: 23 mg/dL
CARBON DIOXIDE [4]: 27 mmol/L
CHLORIDE [4]: 100.33 MEQ/L
CHOLESTEROL [4]: 42.67 mg/dL
CREATINE PHOSPHOKINASE [4]: 236.67 u/L
CREATININE [4]: 0.22 mg/dL
GLUCOSE [4]: 162.33 mg/dL
LACTATE DEHYDROGENASE [4]: 196.67 u/L
LIPASE [4]: 8.67 u/L
PHOSPHORUS [4]: 11.1 mg/dL
POTASSIUM [4]: 6.53 MEQ/L
SODIUM [4]: 144.3 MEQ/L
TOTAL BILIRUBIN [4]: 0.2 mg/dL
TOTAL PROTEIN [4]: 6.13 G/DL
URIC ACID [4]: 1.67 mg/dL

Source: ChEMBL document CHEMBL3885881, “DrugMatrix”
